# Results taken from patent US8735387B2, “Oxazolopyrimidines as Edg-1 receptor agonists” (Sanofi, priority 2008, dated 2014).
# Target: T1, human Edg-1 receptor (Homo sapiens, UniProt P21453)
# T1 construct: expressed in transfected cells; membrane preparation
# Test: GTP-γ-S assay using human Edg-1 receptors (scintillation proximity assay, membrane preparation from CHO Flp-In cell line)
# Type: biochemical
# Conditions: example compound at 10 μM; relative to 10 μM S1P; GTP-γ-S SPA, human Edg-1 membranes
# Outline: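 Membranes came from Flp-In CHO cells constitutively expressing human Edg-1 carrying an N-terminal FLAG tag. Compound-induced receptor activation was read as GTP-γ-S binding in a scintillation proximity format.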
# T1 sequence (P21453 whole entry): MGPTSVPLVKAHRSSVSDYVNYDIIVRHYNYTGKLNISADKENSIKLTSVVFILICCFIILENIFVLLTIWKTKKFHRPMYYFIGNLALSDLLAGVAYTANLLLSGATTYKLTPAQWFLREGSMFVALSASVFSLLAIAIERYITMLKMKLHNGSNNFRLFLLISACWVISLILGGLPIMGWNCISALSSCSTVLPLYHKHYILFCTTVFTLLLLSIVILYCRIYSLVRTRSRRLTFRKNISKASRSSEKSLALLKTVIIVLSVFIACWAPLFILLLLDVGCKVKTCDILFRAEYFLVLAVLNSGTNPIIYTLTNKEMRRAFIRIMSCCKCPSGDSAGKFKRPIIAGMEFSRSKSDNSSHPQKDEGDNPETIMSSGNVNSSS
row,SMILES,% Activation (Edg-1 receptor activation in percent of the activation by 10 μM S1P) [%]
1,CCCOc1nc(CN2CCC(F)(F)CC2)nc2oc(-c3cccc(C(F)(F)F)c3)nc12 [Example 73],120
2,Cc1ccc(-c2nc3c(OC4CCCC4)nc(Cc4ccc(Cl)cc4)nc3o2)cc1 [Example 113],41
3,CCCOc1nc(CN2CCCOCC2)nc2oc(-c3ccc(Cl)c(F)c3)nc12 [Example 91],96
4,CCCCOc1nc(Cc2ccc(Cl)cc2)nc2oc(-c3ccco3)nc12 [Example 111],57
5,CCOc1nc(CC2CCC2)nc2oc(-c3cccc(C)c3)nc12 [Example 163],118
6,CCCOc1nc(CN2CCOCC2)nc2oc(-c3cc(F)c(F)cc3Cl)nc12 [Example 84],108
7,CCCOc1nc(CN2CCSCC2)nc2oc(-c3cccc(F)c3)nc12 [Example 65],109
8,CCCOc1nc(CN2CC[S+]([O-])CC2)nc2oc(-c3cccc(F)c3)nc12 [Example 46],35
9,CCCOc1nc(CN2CCCC(O)C2)nc2oc(-c3cccc(F)c3)nc12 (stereo not drawn) [Example 179],87
10,Cc1cccc(-c2nc3c(OCCC(C)C)nc(Cc4ccc(Cl)cc4)nc3o2)c1 [Example 106],22
11,CCCOc1nc(CN2CCOCC2)nc2oc(-c3cccc(C(F)(F)F)c3)nc12 [Example 72],99
12,CCCOc1nc(CN2CCC(F)(F)CC2)nc2oc(-c3cccc(Cl)c3)nc12 [Example 28],102
13,CCCOc1nc(CN2CCC(F)(F)CC2)nc2oc(-c3ccc(OC)c(F)c3)nc12 [Example 93],103

# The remaining lines, values ahead:
row,% Activation (Edg-1 receptor activation in percent of the activation by 10 μM S1P) [%],SMILES
1,71,CCCOc1nc(Cc2ccc(Cl)cc2)nc2oc(-c3ccc(F)c(F)c3)nc12 [Example 132]
2,43,CCOc1nc(Cc2ccc(Cl)cc2)nc2oc(-c3cc(C)c(OCC(O)CNC4CCN(CC(C)C)CC4)c(C)c3)nc12 (stereo not drawn) [Example 262]
3,42,CCCOc1nc(Cc2ccc(Cl)cc2)nc2oc(-c3ccc(OC)c(Cl)c3)nc12 [Example 218]
4,105,CCCC(=O)NCC(O)COc1c(C)cc(-c2nc3c(OCC)nc(Cc4ccc(Cl)cc4)nc3o2)cc1C (stereo not drawn) [Example 216]
5,95,CCOc1nc(Cc2ccc(Cl)cc2)nc2oc(-c3cc(C)c(OCC(O)CNC(=O)C4(O)CC4)c(C)c3)nc12 (stereo not drawn) [Example 260]
6,112,CCCOc1nc(Cc2ccccc2)nc2oc(-c3cc(C)c(OC)c(C)c3)nc12 [Example 188]
7,65,CCCOc1nc(Cc2ccc(Cl)cc2)nc2oc(-c3ccco3)nc12 [Example 102]
8,79,CCCOc1nc(Cc2ccc(Cl)cc2)nc2oc(-c3cc(C)c(OCC(=O)OCC)c(C)c3)nc12 [Example 233]
9,52,CCOc1nc(Cc2ccc(Cl)cc2)nc2oc(-c3cc(C)c(OCCCSc4ncn[nH]4)c(C)c3)nc12 [Example 296]

# Same assay, conditions: example compound at 10 μM; relative to 10 μM S1P; GTP-γ-S SPA, human Edg-1 membranes; read-out: % Activation (Edg-1 receptor activation in percent of the activation by 10 μM S1P)
row,SMILES,activation at 10 µM [%]
1,"CCCOc1nc(CN2CCOCC2)nc2oc(-c3cccc(O)c3)nc12 [Example 4, 3-(5-Morpholin-4-ylmethyl-7-propoxy-oxazolo[5,4-d]pyrimidin-2-yl)-phenol]",105
2,"CCOc1nc(Cc2ccc(Cl)cc2)nc2oc(-c3cc(C)c(OCC(O)CS(=O)(=O)c4nnc(C(C)C)[nH]4)c(C)c3)nc12 (stereo not drawn) [Example 197, 1-{4-[5-(4-Chloro-benzyl)-7-ethoxy-oxazolo[5,4-d]pyrimidin-2-yl]-2,6-dimethyl-phenoxy}-3-(5-isopropyl-4H-[1,2,4]triazole-3-sulfonyl)-propan-2-ol]",119
